Measured values reported in patent US8691790B2, “Therapy of neurological inflammatory diseases with (5'-deoxy-5'-adenosyl) cobamamide, recombinant human growth hormone, interleukins IL-1, IL-6, IL-11, epidermal growth factor, and physiotherapy” (priority 2009, dated 2014).
“Also recorded” adds a separate entry of the source.

Columns and labels:
[1] = tested on: Relapsing Remitting Multiple Sclerosis (RRMS); conditions: human trials reported in the literature; cited from earlier work
[2] = tested on: Chronic Progressive forms of MS; conditions: human trials reported in the literature; cited from earlier work
[3] = tested on: clinically definite MS patient in the Secondary Progressive stage of MS (SPMS); assay: Scoping experiment in therapy with daily AdoCbl injections in one MS patient; format: in vivo, human
From the text: The current patent, by Boucher, teaches the effective use of AdoCbl, by itself, for therapy of MS and other neurological inflammatory diseases and neurodegenerative diseases. […] Approximately 10 years ago the MS Patient was deemed to be in the Secondary Progressive Multiple Sclerosis (SPMS) stage due to the unremitting accumulation of disability. The MS Patient had loss of memory, cognitive impairment, loss of balance, fatigue, nocturia, not able to lift right foot from the floor, not able to raise right hand, not able to write with the right hand or to use a computer keyboard with the right hand, not able to grip with the right hand, not able to eat with a fork in the right hand, had poor heat tolerance, and was marginally ambulatory with a rollator. The MS patient was more affected on the right side than on the left, which prevented the use of a manual wheelchair. A scoping experiment in therapy with daily injections of 1000 mcg of AdoCbl was initiated. […] After three days, the injection size was increased to 5000 mcg of AdoCbl daily. The MS Patient had been making daily injections of 20 mg Copaxone, but these were stopped for about two months when the scoping experiment with daily injections of AdoCbl was initiated. […] The current patent, by Boucher, teaches that AdoCbl, by itself, provides effective therapy of MS and other inflammatory diseases, that AdoCbl facilitates remyelination, that AdoCbl stops secondary progression of disability in MS and allows extensive recovery from the symptoms of MS. The scoping experiment in therapy with AdoCbl was intended as a test of the etiological hypothesis that the enzyme ATP: Cob (I) alamin adenosyltransferase (ATR) in the CSF was a target of the immune system, which was a major factor in the development of MS. The results of the scoping experiment in therapy strongly support the proposed etiological hypothesis. There are missing details, potentially. Therefore, this patent is not to be restricted to addressing the proposed etiological hypothesis, as other etiological processes are possible.
Prior art in the patent literature and in the published medical literature for therapy of MS has no example of therapy that stops and reverses the progressive accumulation of disability.
A scoping experiment in therapy by parenteral injection of at a dose of between 1 μg and 2.5 g daily AdoCbl into a human subject with clinically definite MS in the secondary progressive stage was conducted.

Row | Compound | effect on rate of relapse [1] | benefit in chronic progressive MS [2] | ambulation ([3]; 5000 mcg of AdoCbl daily, patient was marginally ambulatory with a rollator before) | effect on progression / accumulation of disability in MS ([3]; AdoCbl by itself, single SPMS patient, 98% pure AdoCbl, for more than one year) | ability to raise right hand ([3]; daily injections of 1000 mcg of AdoCbl, after three days, single SPMS patient) | recovery of lost abilities and MS symptoms ([3]; injection size increased to 5000 mcg of AdoCbl daily after three days, Copaxone stopped for about two months, single SPMS patient) | recovery of abilities and symptoms (summary statement) ([3]; parenteral injection, dose of between 1 μg and 2.5 g daily AdoCbl, human subject, secondary progressive MS) | need for continued AdoCbl injections ([3]; single SPMS patient)
1 | Copolymer-1 | effective in lowering the rate of relapse | no effective benefit | – | – | – | – | – | –
2 | C/C1=C2/[N-]C([C@H](CC(N)=O)[C@@]2(C)CCC(=O)NC[C@@H](C)OP(=O)([O-])O[C@H]2[C@@H](O)[C@@H](n3cnc4cc(C)c(C)cc43)O[C@@H]2CO)[C@]2(C)N=C(/C(C)=C3N=C(/C=C4N=C1[C@@H](CCC(N)=O)C\4(C)C)[C@@H](CCC(N)=O)[C@]\3(C)CC(N)=O)[C@@H](CCC(N)=O)[C@]2(C)CC(N)=O.[CH2-][C@H]1O[C@@H](n2cnc3c(N)ncnc32)[C@@H](O)[C@@H]1O.[Co+3] [AdoCbl, (5′-deoxy-5′-adenosyl) cobamide] | – | – | ambulatory and does not need a wheelchair | dramatic therapeutic effect; also recorded: stops the accumulation of disability and substantially reverses disability; also recorded: stopped and reversed chronic progression of MS; also recorded: effectiveness in stopping and even reversing the progressive accumulation of neurological damage | able to raise their right hand above their head | has recovered memory, cognition, normal balance, does not experience fatigue, no longer has nocturia, has recovered some ability with the right leg, is able to write with the right hand, use a computer keyboard with that right hand, and eat with a fork in the right hand | regained physical abilities lost years before, regained memory and cognitive abilities, and had complete recovery from many common symptoms of MS such as fatigue and poor balance | necessary to prevent relapse to the common symptoms of MS
